Assays:
Type in all cases: toxicity, cell-based
Fibroblast = assay: Incucyte cell viability with human fibroblast; details: 10 µM, compound concentration 10 uM
U2OS = assay: Incucyte cell viability with U2OS; details: human, 10 µM, compound concentration 10 uM
HEK-293T = assay: Incucyte cell viability with HEK293T; details: human, 10 µM, compound concentration 10 uM
Note: unitless GR value; below 1 slowed growth and below 0 cell loss.

Row | Structure (SMILES) | Growth Rate (Fibroblast; 0 h, replicate number 1) | Growth Rate (Fibroblast; 6 h, replicate number 1) | Growth Rate (Fibroblast; 12 h, replicate number 1) | Growth Rate (Fibroblast; 12 h, replicate number 2) | Growth Rate (Fibroblast; 18 h, replicate number 1) | Growth Rate (Fibroblast; 18 h, replicate number 2) | Growth Rate (Fibroblast; 24 h, replicate number 1) | Growth Rate (Fibroblast; 24 h, replicate number 2) | Growth Rate (U2OS; 0 h, replicate number 1) | Growth Rate (U2OS; 12 h, replicate number 1) | Growth Rate (U2OS; 12 h, replicate number 2) | Growth Rate (U2OS; 24 h, replicate number 2) | Growth Rate (HEK-293T; 6 h, replicate number 1) | Growth Rate (HEK-293T; 6 h, replicate number 2) | Growth Rate (HEK-293T; 12 h, replicate number 1) | Growth Rate (HEK-293T; 12 h, replicate number 2) | Growth Rate (HEK-293T; 18 h, replicate number 1) | Growth Rate (HEK-293T; 18 h, replicate number 2) | Growth Rate (HEK-293T; 24 h, replicate number 2) | Growth Rate (HEK-293T; 0 h, replicate number 2) | further results
1 | C=CC(=O)Nc1ccc2[nH]c(=O)n(C3CCN(Cc4ccc(-c5ccc6c(c5)NC(=O)CO6)cc4)CC3)c2c1 [RL2578] | -1 | 0.84 | 0.87 | 0.71 | 0.72 | 0.52 | 0.45 | 0.51 | 0.69 | 0.76 | 0.91 | 0.62 | 0.24 | 0.23 | 0.24 | 0.43 | 0.28 | 0.45 | 0.42 | – | Growth Rate (Fibroblast; 6 h, replicate number 2): 0.95; Growth Rate (U2OS; 6 h, replicate number 1): 0.83; Growth Rate (U2OS; 18 h, replicate number 1): 0.75; Growth Rate (U2OS; 18 h, replicate number 2): 0.78; Growth Rate (U2OS; 24 h, replicate number 1): 0.93; Growth Rate (HEK-293T; 24 h, replicate number 1): 0.26
2 | N#CC[C@H](C1CCCC1)n1cc(-c2ncnc3[nH]ccc23)cn1 [RUXOLITINIB] | -1 | – | – | – | – | – | – | – | -1 | – | – | – | 0.27 | – | 0.86 | – | – | – | – | -0.15 | Growth Rate (HEK-293T; 0 h, replicate number 1): -0.91
3 | Oc1ccc(-c2nc(-c3ccncc3)c(-c3ccc(F)cc3)[nH]2)cc1 [SB-202190] | – | 0.11 | -0.11 | 0.62 | – | – | – | – | -0.88 | – | – | – | – | – | – | – | – | – | – | -0.17 | Growth Rate (Fibroblast; 0 h, replicate number 2): -0.18; Growth Rate (U2OS; 0 h, replicate number 2): -0.95; Growth Rate (HEK-293T; 0 h, replicate number 1): 0
4 | O=C(Nc1ccccc1Br)N[C@@H]1CCN(c2ccc(C(F)(F)F)cn2)C1 [SB-705498] | 0.33 | 0.4 | – | 0.55 | – | 0.51 | 0.34 | 0.58 | -0.73 | 0.83 | – | – | – | -0.43 | 0.76 | -0.08 | 0.32 | 0.1 | 0.07 | – | Growth Rate (Fibroblast; 0 h, replicate number 2): 0.7; Growth Rate (Fibroblast; 6 h, replicate number 2): -0.3; Growth Rate (U2OS; 0 h, replicate number 2): -0.91; Growth Rate (U2OS; 6 h, replicate number 1): 0.99; Growth Rate (HEK-293T; 24 h, replicate number 1): 0.31
5 | COc1ccc(-n2nc(C(F)(F)F)cc2-c2ccc(Cl)cc2)cc1 [SC-560] | -1 | 0.63 | 0.59 | 0.09 | 0.62 | 0.54 | 0.68 | 0.62 | – | – | 0.86 | 0.98 | – | 0.8 | – | – | – | – | 0.9 | 0.61 | Growth Rate (Fibroblast; 6 h, replicate number 2): -0.87; Growth Rate (U2OS; 6 h, replicate number 1): 0.67; Growth Rate (U2OS; 6 h, replicate number 2): 0.83; Growth Rate (U2OS; 18 h, replicate number 2): 0.95; Growth Rate (HEK-293T; 0 h, replicate number 1): 0.2
6 | CO[C@H]1C[C@@H]2CC[C@@H](C)[C@@](O)(O2)C(=O)C(=O)N2CCCC[C@H]2C(=O)O[C@H]([C@H](C)C[C@@H]2CC[C@@H](O)[C@H](OC)C2)CC(=O)[C@H](C)/C=C(\C)[C@@H](O)[C@@H](OC)C(=O)[C@H](C)C[C@H](C)/C=C/C=C/C=C/1C [SIROLIMUS] | – | 0.43 | 0.47 | 0.93 | 0.23 | 0.97 | 0.35 | 0.84 | – | 0.93 | 0.81 | – | -0.13 | 0.36 | -0.06 | 0.13 | 0.16 | 0.23 | 0.3 | -0.17 | Growth Rate (U2OS; 0 h, replicate number 2): 0.94; Growth Rate (U2OS; 24 h, replicate number 1): 0.94; Growth Rate (HEK-293T; 0 h, replicate number 1): -0.78; Growth Rate (HEK-293T; 24 h, replicate number 1): 0.26
7 | CN1CCN(c2nc(C3=C(c4c[nH]c5ccccc45)C(=O)NC3=O)c3ccccc3n2)CC1 [SOTRASTAURIN] | – | -0.88 | -1 | – | – | – | – | – | -0.78 | – | – | – | – | – | – | – | – | – | – | -0.61 | Growth Rate (Fibroblast; 0 h, replicate number 2): -0.97; Growth Rate (U2OS; 0 h, replicate number 2): -0.29; Growth Rate (HEK-293T; 0 h, replicate number 1): -0.3
8 | CCOC(=O)N1CCC(CN(Cc2ccc(Cl)cc2)Cc2ccc([N+](=O)[O-])s2)C1 (stereo not drawn) [SR9009] | – | 0.43 | 0.41 | 0.2 | 0.3 | 0.38 | 0.48 | 0.39 | -0.35 | 0.94 | – | – | 0.39 | 0.23 | 0.42 | 0.27 | 0.48 | 0.28 | 0.35 | – | Growth Rate (HEK-293T; 24 h, replicate number 1): 0.41
9 | CCCCCNC(=O)N1CCC(CN(Cc2ccc(Cl)cc2)Cc2ccc([N+](=O)[O-])s2)C1 (stereo not drawn) [SR9011] | – | 0.11 | 0.48 | 0.55 | 0.55 | 0.66 | 0.54 | 0.64 | 0.35 | 0.81 | 0.86 | 0.83 | 0.47 | 0.86 | 0.42 | 0.62 | 0.51 | 0.59 | 0.49 | -0.74 | Growth Rate (Fibroblast; 6 h, replicate number 2): -0.29; Growth Rate (U2OS; 6 h, replicate number 1): 0.88; Growth Rate (U2OS; 6 h, replicate number 2): 0.94; Growth Rate (U2OS; 18 h, replicate number 1): 0.9; Growth Rate (U2OS; 18 h, replicate number 2): 0.94; Growth Rate (U2OS; 24 h, replicate number 1): 0.85; Growth Rate (HEK-293T; 24 h, replicate number 1): 0.54
10 | CC[N+](CC)(CC)CCOc1ccc(/C=C/c2ccccc2)cc1.[I-] [STILONIUM IODIDE] | 0.94 | – | – | 0.37 | 0.28 | 0.62 | – | 0.58 | -0.67 | – | 1 | 0.84 | -0.34 | 0 | -0.18 | -0.14 | -0.14 | -0.12 | -0.15 | 0.44 | Growth Rate (Fibroblast; 6 h, replicate number 2): -1; Growth Rate (U2OS; 0 h, replicate number 2): -0.99; Growth Rate (U2OS; 18 h, replicate number 2): 0.93; Growth Rate (HEK-293T; 0 h, replicate number 1): 1; Growth Rate (HEK-293T; 24 h, replicate number 1): -0.22
11 | O=C1C[C@@H]2OCC=C3CN4CC[C@]56c7ccccc7N1[C@H]5[C@H]2[C@H]3C[C@H]46 [STRYCHNINE] | – | 0.71 | -0.92 | – | 0.57 | 0.93 | 0.81 | 0.91 | – | 0.95 | 0.85 | 0.91 | – | 0.44 | – | 0.86 | – | – | – | 0.94 | Growth Rate (Fibroblast; 0 h, replicate number 2): -0.75; Growth Rate (U2OS; 6 h, replicate number 2): 0.65; Growth Rate (U2OS; 18 h, replicate number 1): 0.88; Growth Rate (U2OS; 18 h, replicate number 2): 0.77; Growth Rate (U2OS; 24 h, replicate number 1): 0.87; Growth Rate (HEK-293T; 0 h, replicate number 1): 0.93
12 | Nc1ccc(S(=O)(=O)Nc2ccnn2-c2ccccc2)cc1 [SULFAPHENAZOLE] | -0.67 | -0.25 | -1 | – | – | – | 0.6 | – | – | 0.83 | 1 | 0.91 | 0.11 | – | 0.6 | – | 0.44 | 0.98 | – | – | Growth Rate (U2OS; 0 h, replicate number 2): -0.29; Growth Rate (U2OS; 6 h, replicate number 1): 0.27; Growth Rate (U2OS; 6 h, replicate number 2): 0.05; Growth Rate (U2OS; 18 h, replicate number 1): 0.83; Growth Rate (U2OS; 18 h, replicate number 2): 0.88; Growth Rate (U2OS; 24 h, replicate number 1): 0.86; Growth Rate (HEK-293T; 24 h, replicate number 1): 0.45
13 | CS(=O)(=O)NC(=O)CCC/C=C\C[C@H]1C(=O)C[C@@H](O)[C@@H]1/C=C/[C@@H](O)COc1ccccc1 [SULPROSTONE] | -1 | 0.27 | 0.85 | 0.39 | 0.95 | 0.47 | 0.79 | 0.63 | 0.72 | 0.97 | 0.91 | 0.94 | – | 0.91 | 0.92 | – | 0.99 | – | – | 0.72 | Growth Rate (Fibroblast; 0 h, replicate number 2): -0.81; Growth Rate (Fibroblast; 6 h, replicate number 2): 0.85; Growth Rate (U2OS; 0 h, replicate number 2): 0.8; Growth Rate (U2OS; 6 h, replicate number 1): 0.89; Growth Rate (U2OS; 6 h, replicate number 2): 0.91; Growth Rate (U2OS; 18 h, replicate number 1): 0.83; Growth Rate (U2OS; 24 h, replicate number 1): 0.87; Growth Rate (HEK-293T; 0 h, replicate number 1): 0.99
14 | CC(C)c1ccc(CC(=O)N[C@H](C)c2ccc(OCC(F)(F)F)cn2)cc1 [SUVECALTAMIDE] | -0.55 | – | – | 0.94 | 0.11 | 0.84 | – | 0.74 | – | 0.59 | 0.89 | 0.9 | 0.16 | – | – | 0.87 | – | 0.95 | 0.8 | 0.85 | Growth Rate (Fibroblast; 6 h, replicate number 2): -1; Growth Rate (U2OS; 0 h, replicate number 2): 0.67; Growth Rate (U2OS; 6 h, replicate number 1): -0.32; Growth Rate (U2OS; 6 h, replicate number 2): 0.56; Growth Rate (U2OS; 18 h, replicate number 1): 0.76; Growth Rate (U2OS; 18 h, replicate number 2): 0.86; Growth Rate (U2OS; 24 h, replicate number 1): 0.78
